The results in this text go back to PubChem BioAssay (NCI).

Some test systems named below: BT-549 breast; HCT-116 colon; MDA-MB-435; MOLT-4 leukemia; NCI-H226 lung; SF-268 CNS; T-47D breast; DU-145 prostate; MDA-MB-231 breast; RPMI-8226 leukemia; OVCAR-8 ovarian; CCRF-CEM leukemia; SNB-75 CNS; SF-295 CNS; M14 melanoma; SK-OV-3 ovarian; LOX IMVI melanoma; NCI-H522 lung.
Assay in all cases: NCI tumour cell line growth inhibition, 48 h

Each structure is given as a SMILES string.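 Briefly, cells in 96-well plates were exposed to five compound concentrations for 48 h, and endpoints were estimated by linear interpolation. TGI: total growth inhibition.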

Turning to `CSc1nncc2[nH]cnc12`, the TGI with BT-549 breast, in the assay on HCT-116 colon, in the assay on MDA-MB-435, in the assay on MOLT-4 leukemia, in the assay on NCI-H226 lung and in the assay with SF-268 CNS was over 100 µM each time. Further, the TGI in the assay with T-47D breast, in the assay with DU-145 prostate, in the assay on MDA-MB-231 breast, with RPMI-8226 leukemia, in the assay on OVCAR-8 ovarian and in the assay with CCRF-CEM leukemia was over 100 µM in each case. Further, the TGI with SNB-75 CNS, in the assay on SF-295 CNS and with M14 melanoma was over 100 µM each time.
As to `O=C(N/N=C\c1ccc([N+](=O)[O-])cc1)c1ccccc1Nc1ccccc1C(=O)N/N=C/c1ccc([N+](=O)[O-])cc1`, the TGI with BT-549 breast, with HCT-116 colon, in the assay on MDA-MB-435, with MOLT-4 leukemia, in the assay with SK-OV-3 ovarian and with NCI-H226 lung was over 100 µM in each case. Further, the TGI in the assay with SF-268 CNS was over 100 µM; in the assay with T-47D breast, over 100 µM; with DU-145 prostate it was over 100 µM; in the assay with MDA-MB-231 breast, 95.1 µM; with RPMI-8226 leukemia, over 100 µM; in the assay on OVCAR-8 ovarian it was over 100 µM. Further, the TGI in the assay on CCRF-CEM leukemia is over 100 µM; with SNB-75 CNS, over 100 µM; with SF-295 CNS, over 100 µM; with M14 melanoma, 79.7 µM.
For the compound `CCN(CC)CCSc1nc2c(c(=N)n1-c1ccccc1)c(=S)n(-c1ccccc1)c(=S)n2-c1ccccc1`, the TGI in the assay on BT-549 breast came out at 5.98 µM; in the assay with HCT-116 colon, 4.69 µM; in the assay with MDA-MB-435, 3.77 µM; with MOLT-4 leukemia, 2.33 µM; in the assay on SK-OV-3 ovarian, 15.5 µM; with NCI-H226 lung it was 50.4 µM. Further, the TGI with SF-268 CNS worked out at 3.9 µM; in the assay on T-47D breast, 9.03 µM; with DU-145 prostate it was 3.05 µM; in the assay on MDA-MB-231 breast, 3.73 µM; with RPMI-8226 leukemia, 1.02 µM; with OVCAR-8 ovarian, 3.54 µM. Further, the TGI in the assay on CCRF-CEM leukemia is 0.446 µM; in the assay on SNB-75 CNS, 5.52 µM; in the assay with SF-295 CNS, 30.1 µM; in the assay with LOX IMVI melanoma, 3.34 µM; with M14 melanoma, 5 µM.
For the compound `CCOC(=O)c1cc(=O)oc2c1N(C)c1ncccc1N2`, the TGI with BT-549 breast, in the assay with HCT-116 colon, in the assay with MDA-MB-435, with MOLT-4 leukemia, in the assay with SK-OV-3 ovarian and in the assay with NCI-H226 lung was over 100 µM in each case. Also, the TGI with SF-268 CNS, with T-47D breast, with DU-145 prostate, in the assay on MDA-MB-231 breast, in the assay on RPMI-8226 leukemia and in the assay with OVCAR-8 ovarian was over 100 µM throughout. Further, the TGI in the assay with SNB-75 CNS, in the assay with SF-295 CNS, in the assay with LOX IMVI melanoma and with M14 melanoma was over 100 µM throughout.
Regarding `O=C(OCC1CCCN2CCCCC12)c1ccncc1` (configuration not stated), the TGI in the assay with BT-549 breast, in the assay on HCT-116 colon, in the assay on MDA-MB-435, in the assay on MOLT-4 leukemia, in the assay on SK-OV-3 ovarian and in the assay with NCI-H226 lung was over 100 µM each time. Moreover, the TGI in the assay on SF-268 CNS, in the assay with T-47D breast, in the assay on DU-145 prostate, in the assay with MDA-MB-231 breast, with RPMI-8226 leukemia and in the assay on OVCAR-8 ovarian was over 100 µM in each case. Besides, the TGI in the assay with CCRF-CEM leukemia, with SNB-75 CNS, with SF-295 CNS, in the assay on LOX IMVI melanoma and with M14 melanoma was over 100 µM throughout.
For the compound `CC(=O)NNC(=S)/N=C/c1c(O)cc(C)oc1=O`, the TGI in the assay on BT-549 breast, in the assay on HCT-116 colon, in the assay on MDA-MB-435, in the assay on MOLT-4 leukemia, with SK-OV-3 ovarian and with NCI-H226 lung was over 100 µM in each case. Also, the TGI in the assay with T-47D breast, in the assay on DU-145 prostate, in the assay on MDA-MB-231 breast, with OVCAR-8 ovarian, in the assay with SNB-75 CNS and with SF-295 CNS was over 100 µM in each case. Besides, the TGI with LOX IMVI melanoma and in the assay on M14 melanoma was over 100 µM in each case.
With `Cc1cc(O)c(/C=N/c2nc(-c3cccc([N+](=O)[O-])c3)cs2)c(=O)o1`, the TGI is 73.5 µM with BT-549 breast; over 100 µM with HCT-116 colon; over 100 µM with MDA-MB-435; over 100 µM with SK-OV-3 ovarian; over 100 µM in the assay on NCI-H226 lung; over 100 µM in the assay with T-47D breast. Moreover, the TGI in the assay on DU-145 prostate, with MDA-MB-231 breast, with OVCAR-8 ovarian, in the assay with SNB-75 CNS, in the assay with SF-295 CNS and in the assay with LOX IMVI melanoma was over 100 µM throughout. The compound also yielded a TGI with M14 melanoma of over 100 µM.
Consider `N#C[C@@]12CCCC(=O)[C@@H]1[C@H]1CCC[C@H]12`, for which the TGI in the assay with BT-549 breast turned out to be 39.2 µM; in the assay on HCT-116 colon it was 30.8 µM; in the assay with MDA-MB-435, 33.5 µM; in the assay on MOLT-4 leukemia, 55.9 µM; with SK-OV-3 ovarian, 32.8 µM; with NCI-H226 lung, 47.6 µM. Moreover, the TGI stood at 41.3 µM in the assay on T-47D breast; 28.8 µM with DU-145 prostate; 31.2 µM in the assay on MDA-MB-231 breast; 32.3 µM in the assay on RPMI-8226 leukemia; 47.5 µM in the assay on OVCAR-8 ovarian; 57.4 µM with CCRF-CEM leukemia. The TGI came out at 36 µM in the assay with SNB-75 CNS, 44.6 µM in the assay with SF-295 CNS, 31 µM with LOX IMVI melanoma and 30.2 µM in the assay with M14 melanoma.
Consider `O=C(O)c1cc(O)c2c(c1)Cc1cccc(O)c1C2=O`, for which the TGI with BT-549 breast was over 100 µM; in the assay on HCT-116 colon, 67.1 µM; in the assay on MDA-MB-435 it was over 100 µM; in the assay on MOLT-4 leukemia, 56.5 µM; with SK-OV-3 ovarian it was over 100 µM; in the assay with NCI-H226 lung, 59.5 µM. Moreover, the TGI in the assay on SF-268 CNS is 56.6 µM; in the assay with T-47D breast, over 100 µM; with DU-145 prostate it was over 100 µM; with MDA-MB-231 breast it was 52.4 µM; in the assay with RPMI-8226 leukemia, 53.2 µM; with OVCAR-8 ovarian, 55.8 µM. Further, the TGI was over 100 µM in the assay on CCRF-CEM leukemia, 30.6 µM in the assay with SNB-75 CNS, 50.5 µM in the assay with SF-295 CNS and 55.2 µM in the assay with M14 melanoma.
As for `CN(C)CCNC(=O)c1ccc(NCCCN(C)CCCNc2ccc(C(=O)NCCN(C)C)c3[nH]c4ccc([N+](=O)[O-])cc4c(=O)c23)c2c(=O)c3cc([N+](=O)[O-])ccc3[nH]c12`, the TGI with BT-549 breast is 2.64 µM; in the assay with HCT-116 colon, 0.644 µM; with MDA-MB-435, 0.328 µM; in the assay on MOLT-4 leukemia it was 0.0623 µM; in the assay on SK-OV-3 ovarian, 1.35 µM; with T-47D breast, 2.55 µM. Moreover, the TGI with DU-145 prostate turned out to be 0.641 µM; in the assay with MDA-MB-231 breast it was 0.34 µM; with RPMI-8226 leukemia, 0.151 µM; with OVCAR-8 ovarian, 1.3 µM; with CCRF-CEM leukemia, 0.145 µM; with SNB-75 CNS, 1.21 µM. Further, the TGI in the assay on LOX IMVI melanoma turned out to be 0.206 µM; in the assay with M14 melanoma, 2.09 µM.
Take `COc1ccc(CCc2ccc(O)c(C(=O)O)c2)cc1OC`: the TGI in the assay on HCT-116 colon, with MDA-MB-435, in the assay on MOLT-4 leukemia, in the assay on SK-OV-3 ovarian, in the assay with NCI-H226 lung and in the assay on SF-268 CNS was over 100 µM each time. Moreover, the TGI with T-47D breast, in the assay with DU-145 prostate, with MDA-MB-231 breast, with RPMI-8226 leukemia, in the assay on OVCAR-8 ovarian and with CCRF-CEM leukemia was over 100 µM throughout. Besides, the TGI in the assay on SNB-75 CNS, in the assay with SF-295 CNS, in the assay with LOX IMVI melanoma, in the assay on M14 melanoma and in the assay on NCI-H522 lung was over 100 µM throughout.
Consider `CSc1nc(O)c(/C=C2\C=Nc3ccccc32)[nH]1`, for which the TGI in the assay with BT-549 breast, in the assay with HCT-116 colon, in the assay on MDA-MB-435, in the assay with MOLT-4 leukemia, in the assay on SK-OV-3 ovarian and with NCI-H226 lung was over 100 µM throughout. The TGI in the assay with SF-268 CNS, in the assay with T-47D breast, with DU-145 prostate, with MDA-MB-231 breast, with RPMI-8226 leukemia and in the assay on OVCAR-8 ovarian was over 100 µM throughout. The TGI in the assay on CCRF-CEM leukemia, with SNB-75 CNS, in the assay on LOX IMVI melanoma and with M14 melanoma was over 100 µM in each case.
Turning to `CC(=O)O[C@H]1C(=O)[C@@]2(C)[C@H]([C@H](OC(=O)c3ccccc3)[C@]3(O)C[C@H](OC(=O)[C@H](O)[C@@H](NC(=O)CC(C)C)c4ccccc4)C(C)=C1C3(C)C)[C@]1(OC(C)=O)CO[C@@H]1C[C@@H]2O`, the TGI in the assay on BT-549 breast, with HCT-116 colon, in the assay with MOLT-4 leukemia, in the assay on NCI-H226 lung, with SF-268 CNS and in the assay on T-47D breast was over 10 µM each time. Further, the TGI was 0.188 µM in the assay on DU-145 prostate; over 10 µM with MDA-MB-231 breast; over 3.24 µM in the assay with OVCAR-8 ovarian; over 10 µM with CCRF-CEM leukemia; 0.0253 µM in the assay on SNB-75 CNS; 0.508 µM in the assay on SF-295 CNS. Moreover, the TGI was over 10 µM in the assay on LOX IMVI melanoma, over 10 µM in the assay with M14 melanoma and 0.0135 µM in the assay with NCI-H522 lung.
